Assay results reported in US9464106B2, “Oligonucleotides useful for detecting and analyzing nucleic acids of interest” (Exiqon A/S, priority 2002, dated 2016).
l = locked nucleic acid (LNA); [5mC] = 5-methylcytosine; d = 2'-deoxy (DNA)

Each substance was assayed on yeast HSP78 (YDR258C) sequence (assay: Duplex melting temperatures of HSP78 25-mer capture probes (UV spectrophotometer)). Settings: 25-mer capture probe duplex with complementary target; design PM = perfectly matched, MM = single mismatch; DNA, LNA_T (T) or LNA_TC (TC) substituted.

First: 12743 (DNA AGACGTACAGCAACAGAAATAGCAG; sugars from the 5' end dddldldlddlddddddddlddldd, [5mC] at 4, 8, 11, 23, backbone not given here) [compound 12743]
Second: 12744 (DNA TTTGGTAGCACGTCAAGCTTAGTAT; sugars from the 5' end ldlddlddldlddddddldlddldd, [5mC] at 9, 11, 18, backbone not given here) [compound 12744]
The “Average duplex melting temp.” value of the first is higher: 73.6 °C for the first, 73.3 °C for the second.

Going from “12745 (DNA ATAAAGCTGGCATTAGGTCTCTTTT; sugars from the 5' end dlddddllddlddddddllldllld, [5mC] at 7, 11, 19, backbone not given here) [compound 12745]” to “12746 (DNA TTTTTCGGCCAATCGATCTTGAATT; sugars from the 5' end ldldllddlldddddddldldddld, [5mC] at 6, 9, 10, 18, backbone not given here) [compound 12746]”, the “Average duplex melting temp.” value falls from 74 °C to 71 °C.

Going from “12747 (DNA CACTCTAACAGTATCGCCGTTTCTA; sugars from the 5' end ldldldddldddddddlddldllld, [5mC] at 1, 3, 5, 9, 17, 23, backbone not given here) [compound 12747]” to “12748 (DNA TCAATGGCCTTGGACCATATAATTG; sugars from the 5' end llddlddldllddddldldlddlld, [5mC] at 2, 8, 16, backbone not given here) [compound 12748]”, the “Average duplex melting temp.” value falls from 75.2 °C to 74.8 °C.

First: 12749 (DNA AAAACGACAGCAAAAGGCTTTCTTC; sugars from the 5' end ddddlddlddlddddddlldlldld, [5mC] at 5, 8, 11, 18, 22, backbone not given here) [compound 12749]
Second: 12750 (DNA ATTGACCTCAAATCTTTCTTGGATA; sugars from the 5' end dllddlllldddddlldllldddld, [5mC] at 6, 7, 9, 18, backbone not given here) [compound 12750]
The “Average duplex melting temp.” value of the first is lower: 72 °C for the first, 72.2 °C for the second.

Compared with “12751 (DNA CCCAACTTTGTGACGTTTAATAAAA; sugars from the 5' end llldddllddlddddlllddldddd, [5mC] at 1, 2, 3, backbone not given here) [compound 12751]”, “12752 (DNA ACCATCATCACCCAACTTTGTGTCG; DNA, backbone not given here; further chemistry not fully specified) [compound 12752]” is lower in “Average duplex melting temp.” value: 67.6 °C for the first, 67.5 °C for the second.

First: 12753 (DNA CAATGATCGTGTTACGGAAATCAAC; DNA, backbone not given here; further chemistry not fully specified) [compound 12753]
Second: 12754 (DNA TGGCCTAGGGAATCGGTCAGCTTAC; DNA, backbone not given here; further chemistry not fully specified) [compound 12754]
The “Average duplex melting temp.” value of the first is lower: 64.2 °C for the first, 70.1 °C for the second.

Going from “12755 (DNA TTGGAAACATCGGGGTGCGCTTTTT; DNA, backbone not given here; further chemistry not fully specified) [compound 12755]” to “12756 (DNA GAAACATCGGGGTGCGCTTTTTCAA; DNA, backbone not given here; further chemistry not fully specified) [compound 12756]”, the “Average duplex melting temp.” value falls from 70.8 °C to 68.7 °C.

First: 12757 (DNA GACAGCCTCAGTTAATTGGCCACCA; DNA, backbone not given here; further chemistry not fully specified) [compound 12757]
Second: 12758 (DNA CCGATTAAACGAGAGACAGTATGCT; DNA, backbone not given here; further chemistry not fully specified) [compound 12758]
The “Average duplex melting temp.” value of the first is higher: 70.2 °C for the first, 65.4 °C for the second.

First: 12759 (DNA ATCAAATAGGAATTCAGCTAAAGCC; DNA, backbone not given here; further chemistry not fully specified) [compound 12759]
Second: 12760 (DNA GACCTAAGAACATAAAGCTGGCAAT; DNA, backbone not given here; further chemistry not fully specified) [compound 12760]
The “Average duplex melting temp.” value of the first is lower: 61.5 °C for the first, 63.5 °C for the second.

Going from “12761 (DNA AAATAGCAGCAATGGCCTCGTCTTG; DNA, backbone not given here; further chemistry not fully specified) [compound 12761]” to “12762 (DNA ATAGCAGCAATGGCCTCGTCTTGGC; DNA, backbone not given here; further chemistry not fully specified) [compound 12762]”, the “Average duplex melting temp.” value rises from 69.2 °C to 72.7 °C.

Compared with “12763 (DNA GCAATGGCCTCGTCTTGGCCAACGA; DNA, backbone not given here; further chemistry not fully specified) [compound 12763]”, “12764 (DNA GATGAACTCAGGTGGATAGGATCTT; DNA, backbone not given here; further chemistry not fully specified) [compound 12764]” is lower in “Average duplex melting temp.” value: 72.8 °C for the first, 64 °C for the second.

First: 12765 (DNA TCAGTTAGCCAATCCTTCGCTTCAT; DNA, backbone not given here; further chemistry not fully specified) [compound 12765]
Second: 12766 (DNA GTTGCCATGGAGTTCAAAATCTGTC; DNA, backbone not given here) [compound 12766]
The “Average duplex melting temp.” value of the first is higher: 66.1 °C for the first, 65.8 °C for the second.

Going from “12767 (DNA AGACGTACAGCATCAGAAATAGCAG; DNA, backbone not given here; further chemistry not fully specified) [compound 12767]” to “12768 (DNA TTTGGTAGCACGACAAGCTTAGTAT; DNA, backbone not given here) [compound 12768]”, the “Average duplex melting temp.” value falls from 66.6 °C to 65.7 °C.

Compared with “12769 (DNA ATAAAGCTGGCAATAGGTCTCTTTT; DNA, backbone not given here; further chemistry not fully specified) [compound 12769]”, “12770 (DNA TTTTTCGGCCAAACGATCTTGAATT; DNA, backbone not given here; further chemistry not fully specified) [compound 12770]” is higher in “Average duplex melting temp.” value: 63.6 °C for the first, 65 °C for the second.

First: 12771 (DNA CACTCTAACAGTTTCGCCGTTTCTA; DNA, backbone not given here) [compound 12771]
Second: 12772 (DNA TCAATGGCCTTGCACCATATAATTG; DNA, backbone not given here) [compound 12772]
The “Average duplex melting temp.” value of the first is higher: 66.3 °C for the first, 64 °C for the second.

First: 12773 (DNA AAAACGACAGCATAAGGCTTTCTTC; DNA, backbone not given here; further chemistry not fully specified) [compound 12773]
Second: 12774 (DNA ATTGACCTCAAAACTTTCTTGGATA; DNA, backbone not given here; further chemistry not fully specified) [compound 12774]
The “Average duplex melting temp.” value of the first is higher: 64.5 °C for the first, 61.8 °C for the second.

Going from “12775 (DNA CCCAACTTTGTGTCGTTTAATAAAA; DNA, backbone not given here; further chemistry not fully specified) [compound 12775]” to “12776 (DNA ACCATCATCACCCAACTTTGTGTCG; DNA at ACG, LNA at T, backbone not given here; further chemistry not fully specified) [compound 12776]”, the “Average duplex melting temp.” value rises from 61 °C to 79.2 °C.

Going from “12777 (DNA CAATGATCGTGTTACGGAAATCAAC; sugars from the 5' end dddlddlddlddldddddddldddd, backbone not given here; further chemistry not fully specified) [compound 12777]” to “12778 (DNA TGGCCTAGGGAATCGGTCAGCTTAC; DNA at ACG, LNA at T, backbone not given here; further chemistry not fully specified) [compound 12778]”, the “Average duplex melting temp.” value rises from 72.2 °C to 76.9 °C.

Compared with “12779 (DNA TTGGAAACATCGGGGTGCGCTTTTT; sugars from the 5' end lldddddddldddddlddddlllld, backbone not given here; further chemistry not fully specified) [compound 12779]”, “12780 (DNA GAAACATCGGGGTGCGCTTTTTCAA; DNA at ACG, LNA at T, backbone not given here; further chemistry not fully specified) [compound 12780]” is higher in “Average duplex melting temp.” value: 76.7 °C for the first, 78 °C for the second.

Compared with “12781 (DNA GACAGCCTCAGTTAATTGGCCACCA; sugars from the 5' end dddddddlddddlddlldddddddd, backbone not given here; further chemistry not fully specified) [compound 12781]”, “12782 (DNA CCGATTAAACGAGAGACAGTATGCT; sugars from the 5' end ddddlldddddddddddddldlddd, backbone not given here; further chemistry not fully specified) [compound 12782]” is lower in “Average duplex melting temp.” value: 75.4 °C for the first, 72.2 °C for the second.
